One assay addresses T1, DDR2 (Homo sapiens, UniProt Q16832).
T1 construct: purchased Life Technologies
T1 sequence (Q16832 22-855): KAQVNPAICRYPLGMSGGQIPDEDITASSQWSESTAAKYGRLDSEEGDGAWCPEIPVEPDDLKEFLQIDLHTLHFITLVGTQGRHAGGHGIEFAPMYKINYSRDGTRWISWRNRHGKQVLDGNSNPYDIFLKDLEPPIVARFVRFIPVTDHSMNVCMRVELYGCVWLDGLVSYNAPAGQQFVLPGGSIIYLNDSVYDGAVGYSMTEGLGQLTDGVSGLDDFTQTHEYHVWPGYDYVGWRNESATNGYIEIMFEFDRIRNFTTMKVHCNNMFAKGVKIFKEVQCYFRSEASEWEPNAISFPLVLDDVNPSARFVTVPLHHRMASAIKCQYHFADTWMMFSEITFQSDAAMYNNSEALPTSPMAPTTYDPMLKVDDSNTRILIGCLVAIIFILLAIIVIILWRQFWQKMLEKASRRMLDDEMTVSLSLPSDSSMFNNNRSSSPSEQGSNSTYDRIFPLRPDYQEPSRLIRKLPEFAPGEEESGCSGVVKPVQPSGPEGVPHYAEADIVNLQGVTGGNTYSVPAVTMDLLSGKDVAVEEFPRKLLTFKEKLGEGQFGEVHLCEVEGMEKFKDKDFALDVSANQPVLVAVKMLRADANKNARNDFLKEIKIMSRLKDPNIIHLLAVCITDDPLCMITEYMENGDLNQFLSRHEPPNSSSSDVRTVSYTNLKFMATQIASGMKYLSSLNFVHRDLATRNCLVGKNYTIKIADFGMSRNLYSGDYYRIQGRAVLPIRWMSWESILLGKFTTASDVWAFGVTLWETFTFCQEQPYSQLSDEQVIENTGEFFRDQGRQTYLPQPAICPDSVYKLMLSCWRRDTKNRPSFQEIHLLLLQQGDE
Nature of the assay: LanthaScreen Europium Kinase Binding assay, DDR2. As for the experimental part: (§1) DDR1 and DDR2 binding assays were performed using Life Technologies LanthaScreen™ Europium Kinase Binding assay. […] IC50 values were determined in GraphPad Prism 7.0 software, using 4 parameter model: log (inhibitor) vs. response. IC50 values were converted in Ki using the Cheng-Prusoff equation (Ki-IC50/(1+ [Tracer]/Kd).
(In general: In TR-FRET formats the signal depends on donor and acceptor labels being close together.)

The target in a further assay is T2, DDR1 (Homo sapiens, UniProt Q08345).
T2 construct: purchased Carna Biosciences
Nature of the assay: LanthaScreen Europium Kinase Binding assay, DDR1. As for the experimental part: as §1

The mark [1] stands for this setting: 5 nM DDR2, 10 nM Kinase Tracer 178, 1 h at rt, Ki from IC50 by Cheng-Prusoff, read-out: Ki DDR2.
[2] abbreviates: 5 nM DDR1, 20 nM Kinase Tracer 178, 1 h at rt, Ki from IC50 by Cheng-Prusoff, read-out: Ki DDR1.
Where [3] appears, read: same binding assay, numeric values.

From US20260285855A1, “HETEROARYL DERIVATIVES AS DDRS INHIBITORS” (CHIESI FARMACEUTICI S.P.A., priority 2023, published 2026) come the findings set out here.

Where two headings read alike, the source gives them in different places.

T2 sequence (Q08345 19-913): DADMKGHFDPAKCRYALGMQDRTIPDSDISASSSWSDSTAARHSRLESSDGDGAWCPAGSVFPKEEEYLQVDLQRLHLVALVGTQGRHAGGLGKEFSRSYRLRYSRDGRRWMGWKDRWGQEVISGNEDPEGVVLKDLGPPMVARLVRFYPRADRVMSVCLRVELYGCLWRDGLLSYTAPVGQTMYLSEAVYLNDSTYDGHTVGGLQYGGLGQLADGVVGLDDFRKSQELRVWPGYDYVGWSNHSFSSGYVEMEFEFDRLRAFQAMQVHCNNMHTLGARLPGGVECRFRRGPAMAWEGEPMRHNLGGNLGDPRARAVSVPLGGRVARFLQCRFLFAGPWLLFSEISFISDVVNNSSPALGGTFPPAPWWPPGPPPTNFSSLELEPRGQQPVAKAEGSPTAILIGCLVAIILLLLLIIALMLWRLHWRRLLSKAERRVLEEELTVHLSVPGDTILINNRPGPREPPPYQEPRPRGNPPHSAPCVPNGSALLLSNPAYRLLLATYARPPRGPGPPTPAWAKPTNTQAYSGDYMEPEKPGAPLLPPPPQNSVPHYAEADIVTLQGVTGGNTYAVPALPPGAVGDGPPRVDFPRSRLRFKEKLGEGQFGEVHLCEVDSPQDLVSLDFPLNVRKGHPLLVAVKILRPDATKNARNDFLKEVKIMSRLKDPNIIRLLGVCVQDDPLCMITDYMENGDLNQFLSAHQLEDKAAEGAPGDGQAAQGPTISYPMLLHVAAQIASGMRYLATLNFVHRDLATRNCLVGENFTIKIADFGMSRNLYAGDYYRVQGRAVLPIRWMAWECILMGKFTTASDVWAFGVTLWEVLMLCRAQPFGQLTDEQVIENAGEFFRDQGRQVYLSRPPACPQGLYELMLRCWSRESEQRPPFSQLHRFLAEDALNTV

For the compound `Cn1ccn2ncc(C(=O)N3CC4(CC(NC(=O)Nc5cc(C#N)cc(OC(F)(F)F)c5)C4)C3)c12` [Example 71, 1-(3-cyano-5-(trifluoromethoxy)phenyl)-3-(2-(1-methyl-1H-imidazo[1,2-b]pyrazole-7-carbonyl)-2-azaspiro[3.3]heptan-6-yl)urea], the Ki at DDR2 (setting [1]) and at DDR1 (setting [2]) was below 5 nM throughout.

For `CN(C(=O)Nc1cccc(S(F)(F)(F)(F)F)c1)C1CC2(C1)CN(C(=O)c1cnn3ccn(CCO)c13)C2` [Example 210, 1-(2-(1-(2-hydroxyethyl)-1H-imidazo[1,2-b]pyrazole-7-carbonyl)-2-azaspiro[3.3]heptan-6-yl)-1-methyl-3-(3-(pentafluoro-16-sulfaneyl)phenyl)urea], the Ki on DDR2 (setting [1]) and on DDR1 (setting [2]) was below 5 nM each time.

Regarding `O=C(NC1CC2(C1)CN(C(=O)Nc1cccc(C(F)(F)F)c1)C2)c1cnn2ccncc12` [Example C3, N-(2-((3-(trifluoromethyl)phenyl)carbamoyl)-2-azaspiro[3.3]heptan-6-yl) pyrazolo[1,5-a]pyrazine-3-carboxamide, reference compound], on DDR2 (setting [3]), the “DDR2 Ki (nM)” value is recorded as “did not show a binding affinity”. Also, the Ki on DDR2 (same binding assay, numeric values, read-out: DDR2 Ki) is above 500 nM; on DDR1 (same binding assay, numeric values, read-out: DDR1 Ki) it was above 500 nM. Also, the “DDR1 Ki (nM)” value on DDR1 (setting [3]) is “did not show a binding affinity”.

Turning to `O=C(Nc1cc(CO)cc(C(F)(F)F)c1)NC1CC2(C1)CN(C(=O)c1ncnc3ccsc13)C2` [Example 110, 1-(3-(hydroxymethyl)-5-(trifluoromethyl)phenyl)-3-(2-(thieno[3,2-d]pyrimidine-4-carbonyl)-2-azaspiro[3.3]heptan-6-yl)urea], the inhibitory constant (Ki) at DDR2 (setting [1]) and at DDR1 (setting [2]) was below 5 nM throughout.

In the case of `CC(C)c1cncc(NC(=O)NC2CC3(C2)CN(C(=O)c2cnn4ccsc24)C3)c1` [Example 35, 1-(5-isopropylpyridin-3-yl)-3-(2-(pyrazolo[5,1-b]thiazole-7-carbonyl)-2-azaspiro[3.3]heptan-6-yl)urea], the Ki at DDR2 (setting [1]) is 5 to 25 nM; at DDR1 (setting [2]), below 5 nM.

Regarding `CN(C(=O)Nc1cc(C(C)(C)C(F)(F)F)on1)C1CC2(C1)CN(C(=O)c1cnn3ccn(C)c13)C2` [Example 199, 1-methyl-1-(2-(1-methyl-1H-imidazo[1,2-b]pyrazole-7-carbonyl)-2-azaspiro[3.3]heptan-6-yl)-3-(5-(1,1,1-trifluoro-2-methylpropan-2-yl)isoxazol-3-yl)urea], the figures for the inhibitory constant (Ki) at DDR2 (setting [1]) and at DDR1 (setting [2]) were 5 to 25 nM and below 5 nM, respectively.

For the compound `CN(C(=O)Nc1cc(C#N)cc(C(F)(F)F)c1)C1CC2(C1)CN(C(=O)c1ncnc3[nH]ccc13)C2` [Example 284, 1-(2-(7H-pyrrolo[2,3-d]pyrimidine-4-carbonyl)-2-azaspiro[3.3]heptan-6-yl)-3-(3-cyano-5-(trifluoromethyl)phenyl)-1-methylurea], the inhibition constant Ki on DDR2 (setting [1]) was 5 to 25 nM; at DDR1 (setting [2]), below 5 nM.

Take `CN(C(=O)Nc1cncc(Br)c1)C1CC2(C1)CN(C(=O)c1cnn3ccn(C)c13)C2` [Example 197, 3-(5-bromopyridin-3-yl)-1-methyl-1-(2-(1-methyl-1H-imidazo[1,2-b]pyrazole-7-carbonyl)-2-azaspiro[3.3]heptan-6-yl)urea]: the Ki at DDR2 (setting [1]) was 5 to 25 nM; at DDR1 (setting [2]), below 5 nM.

Take `O=C(Nc1cccc(C(F)(F)F)c1)NC1CC2(C1)CN(Cc1cnc3[nH]ncc3c1)C2` [Example 12, 1-(2-((1H-pyrazolo[3,4-b]pyridine-5-yl)methyl)-2-azaspiro[3.3]heptan-6-yl)-3-(3-(trifluoromethyl)phenyl)urea]: the Ki on DDR2 (setting [1]) and on DDR1 (setting [2]) was 5 to 25 nM in each case.

As for `Cn1ccn2ncc(C(=O)N3CC4(CC(NC(=O)Nc5cccc(C(F)(F)C(F)(F)F)c5)C4)C3)c12` [Example 127, 1-(2-(1-methyl-1H-imidazo[1,2-b]pyrazole-7-carbonyl)-2-azaspiro[3.3]heptan-6-yl)-3-(3-(perfluoroethyl)phenyl)urea], the inhibition constant (Ki) at DDR2 (setting [1]) and on DDR1 (setting [2]) was below 5 nM throughout.

For the compound `COc1ccc(OC(F)(F)F)cc1NC(=O)NC1CC2(C1)CN(C(=O)c1cnc3cnccn13)C2` [Example 57, 1-(2-(imidazo[1,2-a]pyrazine-3-carbonyl)-2-azaspiro[3.3]heptan-6-yl)-3-(2-methoxy-5-(trifluoromethoxy)phenyl)urea], the Ki at DDR2 (setting [1]) is 5 to 25 nM; at DDR1 (setting [2]) it was below 5 nM.

Regarding `CCOc1ccc(C(F)(F)F)cc1NC(=O)NC1CC2(C1)CN(C(=O)c1cnn3ccn(C)c13)C2` [Example 298, 1-(2-ethoxy-5-(trifluoromethyl)phenyl)-3-(2-(1-methyl-1H-imidazo[1,2-b]pyrazole-7-carbonyl)-2-azaspiro[3.3]heptan-6-yl)urea], the Ki on DDR2 (setting [1]) and on DDR1 (setting [2]) was below 5 nM throughout.

As for `CN(C(=O)Nc1cccc(C(F)(F)F)c1)C1CC2(C1)CN(C(=O)c1cnn3ccsc13)C2` [Example 133, 1-methyl-1-(2-(pyrazolo[5,1-b]thiazole-7-carbonyl)-2-azaspiro[3.3]heptan-6-yl)-3-(3-(trifluoromethyl)phenyl)urea], the Ki is 5 to 25 nM at DDR2 (setting [1]) and below 5 nM at DDR1 (setting [2]).

As to `O=C(CC1CC2(C1)CN(C(=O)c1cnn3ccn(C(F)F)c13)C2)Nc1cc(OC(F)(F)F)ccn1` [Example 302, 2-(2-(1-(difluoromethyl)-1H-imidazo[1,2-b]pyrazole-7-carbonyl)-2-azaspiro[3.3]heptan-6-yl)-N-(4-(trifluoromethoxy)pyridin-2-yl)acetamide], the inhibition constant Ki at DDR2 (setting [1]) and on DDR1 (setting [2]) was below 5 nM in each case.

As to `Cc1ccc(-n2nc(C(C)(C)C)cc2NC(=O)NC2CC3(C2)CN(C(=O)c2cnn4ccsc24)C3)cc1` [Example 80, 1-(3-(tert-butyl)-1-(p-tolyl)-1H-pyrazol-5-yl)-3-(2-(pyrazolo[5,1-b]thiazole-7-carbonyl)-2-azaspiro[3.3]heptan-6-yl)urea], the Ki at DDR2 (setting [1]) is 5 to 25 nM; on DDR1 (setting [2]), below 5 nM.

With `CN(C(=O)Nc1cncc(OC(F)(F)F)c1)C1CC2(C1)CN(C(=O)c1ncnc3[nH]ccc13)C2` [Example 204, 1-(2-(7H-pyrrolo[2,3-d]pyrimidine-4-carbonyl)-2-azaspiro[3.3]heptan-6-yl)-1-methyl-3-(5-(trifluoromethoxy)pyridin-3-yl)urea], the results for the Ki at DDR2 (setting [1]) and at DDR1 (setting [2]) were 5 to 25 nM and below 5 nM, respectively.

As for `CN(C(=O)Nc1cccc(C(F)(F)F)c1)C1CC2(C1)CN(C(=O)c1cnn3ccncc13)C2` [Example 25, 1-methyl-1-(2-(pyrazolo[1,5-a]pyrazine-3-carbonyl)-2-azaspiro[3.3]heptan-6-yl)-3-(3-(trifluoromethyl)phenyl)urea], the inhibitory constant (Ki) at DDR2 (setting [1]) was in the range of 25 to 100 nM; on DDR1 (setting [2]) it was 5 to 25 nM.

Take `O=C(Nc1cccc(C(F)(F)F)c1)NC1CC2(C1)CN(C(=O)c1ccnc3ccsc13)C2` [Example 137, 1-(2-(thieno[3,2-b]pyridine-7-carbonyl)-2-azaspiro[3.3]heptan-6-yl)-3-(3-(trifluoromethyl)phenyl)urea]: the Ki at DDR2 (setting [1]) and at DDR1 (setting [2]) was below 5 nM each time.

As for `COc1ccc(OC(F)(F)F)cc1NC(=O)NC1CC2(C1)CN(C(=O)c1cnn3ccccc13)C2` [Example 68, 1-(2-methoxy-5-(trifluoromethoxy)phenyl)-3-(2-(pyrazolo[1,5-a]pyridine-3-carbonyl)-2-azaspiro[3.3]heptan-6-yl)urea], the Ki at DDR2 (setting [1]) was 5 to 25 nM; on DDR1 (setting [2]) it was below 5 nM.

Turning to `CN(C(=O)Nc1cncc(C(F)(F)F)c1)C1CC2(C1)CN(C(=O)c1cnn3cc(-c4ccncc4)ccc13)C2` [Example 249, 1-methyl-1-(2-(6-(pyridin-4-yl)pyrazolo[1,5-a]pyridine-3-carbonyl)-2-azaspiro[3.3]heptan-6-yl)-3-(5-(trifluoromethyl)pyridin-3-yl)urea], the inhibitory constant (Ki) on DDR2 (setting [1]) is 5 to 25 nM; on DDR1 (setting [2]), below 5 nM.

As for `COc1ccc(OC(F)(F)F)cc1NC(=O)NC1CC2(C1)CN(C(=O)c1cnn3ccn(C)c13)C2` [Example 36, 1-(2-methoxy-5-(trifluoromethoxy)phenyl)-3-(2-(1-methyl-1H-imidazo[1,2-b]pyrazole-7-carbonyl)-2-azaspiro[3.3]heptan-6-yl)urea], the inhibition constant Ki on DDR2 (setting [1]) is 5 to 25 nM; at DDR1 (setting [2]), below 5 nM.

Regarding `Cc1cnc(NC(=O)N(C)C2CC3(C2)CN(C(=O)c2cnn4ccn(C)c24)C3)cc1C(F)(F)F` [Example 303, 1-methyl-1-(2-(1-methyl-1H-imidazo[1,2-b]pyrazole-7-carbonyl)-2-azaspiro[3.3]heptan-6-yl)-3-(5-methyl-4-(trifluoromethyl)pyridin-2-yl)urea], the Ki at DDR2 (setting [1]) was 5 to 25 nM; at DDR1 (setting [2]), below 5 nM.

As a reminder, the Ki is the equilibrium dissociation constant of an inhibitor or competing ligand from its target.
